Measured values reported in US11718618B2, “Substituted pyrido[2,1-a]isoquinolines as VMAT2 inhibitors” (priority 2021, dated 2023).
Read-outs that look alike come from different tables or passages of the source.

Assays:
[1] = Stability of compounds in human liver microsomes; assay type: in vitro ADME; settings: for CLint scaled at 0.5 μM / half-life at 0.5 μM: both sexes, pH 7.4; for CLint scaled at 0.5 μM: liver microsomes, calculated from HLM half-life, read-out: HLM Scaled Intrinsic Clearance; for CLint scaled at 0.5 μM / Predicted Max. Bioavailability (% F) / HLM Predicted Systemic Clearance: human; for half-life at 0.5 μM: 0.5 μM compound, 0.5 mg/mL human liver microsomes, 37° C., maxed at 420 minutes, read-out: HLM Elimination half-life (t1/2, min); for Predicted Max. Bioavailability (% F): predicted from HLM data; for HLM Predicted Systemic Clearance: scaled from HLM half-life (Obach method)
Description: A test compound (0.5 μM) was incubated with pooled mixed gender liver microsomes from humans (0.5 mg/mL total protein) at 37° C. in the presence of an NADPH-generating system containing 50 mM, pH 7.4 potassium phosphate buffer, 3 mM magnesium chloride, 1 mM EDTA, 1 mM NADP, 5 mM glusose-6-phosphate, and 1 Unit/mL glucose-6-phosphate dehydrogenase. All concentrations were relative to the final incubation volume of 125 μL. Incubations were conducted at 37° C. for 0, 5, 10, 20, 40, and 60 minutes in a water bath and terminated by rapid mixing with 150 μL of ice-cold acetonitrile containing internal standard. Precipitated proteins were removed by centrifugation prior to LC-MS/MS analysis. Aliquots of the resulting supernatant fractions were analyzed by LC-MS/MS monitoring for depletion of parent compound. The resultant peak area ratio versus time data was fitted to a non-linear regression using XLfit Scientific Curve Fitting Software (IDBS Ltd., Surrey, UK) and the elimination half-life (t1/2, min) was calculated from the slope. […] Additional values calculated included predicted extraction ratio and predicted maximum bioavailability.

human VMAT2 = human VMAT2 (Homo sapiens (Human), UniProt Q05940); experiment: VMAT2 radioligand binding, 3H-dihydrotetrabenazine competition on human platelet homogenate
Method in brief: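 Human platelet homogenate (30 μg membrane protein/well) in DPBS with 1 mM EDTA, pH 7.4; twelve test-compound concentrations competed against 10 nM ³H-dihydrotetrabenazine. Incubated 90 min at 25 °C, bound radioligand collected by filtration on PEI-pretreated glass-fibre filters and counted by scintillation; Ki derived.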

[2] = 10 nM 3H-dihydrotetrabenazine, human platelet homogenate, 25° C., 90 minutes, read-out: VMAT2 Ki

human VMAT2, sequence (Q05940 whole entry): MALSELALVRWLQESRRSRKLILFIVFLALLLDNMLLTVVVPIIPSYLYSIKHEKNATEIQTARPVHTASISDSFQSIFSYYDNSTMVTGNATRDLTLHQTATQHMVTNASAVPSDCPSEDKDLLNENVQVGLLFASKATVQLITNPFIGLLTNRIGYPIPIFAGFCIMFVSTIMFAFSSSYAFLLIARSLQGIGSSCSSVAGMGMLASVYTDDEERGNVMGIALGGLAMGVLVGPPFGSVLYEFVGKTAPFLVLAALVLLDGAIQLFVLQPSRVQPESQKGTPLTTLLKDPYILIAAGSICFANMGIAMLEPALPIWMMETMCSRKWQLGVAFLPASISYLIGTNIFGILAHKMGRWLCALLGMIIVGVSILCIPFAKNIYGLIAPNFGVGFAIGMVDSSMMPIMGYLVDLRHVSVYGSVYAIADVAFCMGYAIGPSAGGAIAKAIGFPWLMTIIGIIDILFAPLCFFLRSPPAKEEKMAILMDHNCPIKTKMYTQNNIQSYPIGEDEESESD

COc1cc2c(cc1OCC1(C#N)CC1)CCN1C[C@@H](CC(C)(C)C)[C@H](O)C[C@H]21 [Compound 4-29, 1-({[(2R,3R,11bR)-3-(2,2-dimethylpropyl)-2-hydroxy-10-methoxy-1H,2H,3H,4H,6H,7H,11bH-pyrido[2,1-a]isoquinolin-9-yl]oxy}methyl)cyclopropane-1-carbonitrile]
CLint scaled at 0.5 μM [1]: ≤ 0.178 L/h/kg
half-life at 0.5 μM [1]: ≥ 420 min
Predicted Max. Bioavailability (% F) [1]: ≥87 % F
HLM Predicted Systemic Clearance [1]: ≤0.155 L/h/kg
Ki (human VMAT2; [2]): 0.083 µM

COc1cc2c(cc1OC1COC1)CCN1C[C@@H](CC(C)(C)C)[C@H](O)C[C@H]21 [Compound 4-30, (2R,3R,11bR)-3-(2,2-dimethylpropyl)-10-methoxy-9-(oxetan-3-yloxy)-1H,2H,3H,4H,6H,7H,11bH-pyrido[2,1-a]isoquinolin-2-ol]
CLint scaled at 0.5 μM [1]: ≤ 0.178 L/h/kg
half-life at 0.5 μM [1]: ≥ 420 min
Predicted Max. Bioavailability (% F) [1]: ≥87 % F
HLM Predicted Systemic Clearance [1]: ≤0.155 L/h/kg
Ki (human VMAT2; [2]): 0.012 µM

COc1cc2c(cc1OC1CCC1)CCN1C[C@@H](CC(C)(C)C)[C@H](O)C[C@H]21 [Compound 4-32, (2R,3R,11bR)-9-cyclobutoxy-3-(2,2-dimethylpropyl)-10-methoxy-1H,2H,3H,4H,6H,7H,11bH-pyrido[2,1-a]isoquinolin-2-ol]
CLint scaled at 0.5 μM [1]: 3.99 L/h/kg
half-life at 0.5 μM [1]: 19 min
Predicted Max. Bioavailability (% F) [1]: 23 % F
HLM Predicted Systemic Clearance [1]: 0.9228 L/h/kg
Ki (human VMAT2; [2]): 0.00059 µM

COc1cc2c(cc1OCc1ncc(C)o1)CCN1C[C@@H](CC(C)(C)C)[C@H](O)C[C@H]21 [Compound 4-36, (2R,3R,11bR)-3-(2,2-dimethylpropyl)-10-methoxy-9-[(5-methyl-1,3-oxazol-2-yl)methoxy]-1H,2H,3H,4H,6H,7H,11bH-pyrido[2,1-a]isoquinolin-2-ol]
CLint scaled at 0.5 μM [1]: 0.803 L/h/kg
half-life at 0.5 μM [1]: 93 min
Predicted Max. Bioavailability (% F) [1]: 60 % F
HLM Predicted Systemic Clearance [1]: 0.481 L/h/kg
Ki (human VMAT2; [2]): 0.051 µM

COc1cc2c(cc1OC(C)C)CCN1C[C@@H](CC(C)(C)C)[C@H](O)C[C@H]21 [Compound 4-38, (2R,3R,11bR)-3-(2,2-dimethylpropyl)-10-methoxy-9-(propan-2-yloxy)-1H,2H,3H,4H,6H,7H,11bH-pyrido[2,1-a]isoquinolin-2-ol]
CLint scaled at 0.5 μM [1]: 1.29 L/h/kg
half-life at 0.5 μM [1]: 58 min
Predicted Max. Bioavailability (% F) [1]: 48 % F
HLM Predicted Systemic Clearance [1]: 0.621 L/h/kg
Ki (human VMAT2; [2]): 0.0037 µM

[2H]C([2H])([2H])C([2H])([2H])Oc1cc2c(cc1OC)[C@H]1C[C@@H](O)[C@H](CC(C)(C)C)CN1CC2 [Compound 4-40, (2R,3R,11bR)-3-(2,2-dimethylpropyl)-9-(ethoxy-d5)-10-methoxy-1H,2H,3H,4H,6H,7H,11bH-pyrido[2,1-a]isoquinolin-2-ol]
CLint scaled at 0.5 μM [1]: 1.43 L/h/kg
half-life at 0.5 μM [1]: 52 min
Predicted Max. Bioavailability (% F) [1]: 46 % F
HLM Predicted Systemic Clearance [1]: 0.6528 L/h/kg
Ki (human VMAT2): 0.0014 µM

COc1cc2c(cc1OCCOC1(C#N)CCOCC1)CCN1C[C@@H](CC(C)(C)C)[C@H](O)C[C@H]21 [Compound 4-41, 4-(2-{[(2R,3R,11bR)-3-(2,2-dimethylpropyl)-2-hydroxy-10-methoxy-1H,2H,3H,4H,6H,7H,11bH-pyrido[2,1-a]isoquinolin-9-yl]oxy}ethoxy)oxane-4-carbonitrile]
CLint scaled at 0.5 μM [1]: 2.71 L/h/kg
half-life at 0.5 μM [1]: 28 min
Predicted Max. Bioavailability (% F) [1]: 31 % F
HLM Predicted Systemic Clearance [1]: 0.8322 L/h/kg
Ki (human VMAT2; [2]): 0.238 µM

COc1cc2c(cc1OCC1(C#N)CCC1)CCN1C[C@@H](CC(C)(C)C)[C@H](O)C[C@H]21 [Compound 4-42, 1-({[(2R,3R,11bR)-3-(2,2-dimethylpropyl)-2-hydroxy-10-methoxy-1H,2H,3H,4H,6H,7H,11bH-pyrido[2,1-a]isoquinolin-9-yl]oxy}methyl)cyclobutane-1-carbonitrile]
CLint scaled at 0.5 μM [1]: 1.46 L/h/kg
half-life at 0.5 μM [1]: 51 min
Predicted Max. Bioavailability (% F) [1]: 45 % F
HLM Predicted Systemic Clearance [1]: 0.6588 L/h/kg
Ki (human VMAT2; [2]): 0.035 µM

COc1cc2c(cc1OCCOC(C#N)C1CC1)CCN1C[C@@H](CC(C)(C)C)[C@H](O)C[C@H]21 (stereo partly drawn) [Compound 4-43, 2-(2-{[(2R,3R,11bR)-3-(2,2-dimethylpropyl)-2-hydroxy-10-methoxy-1H,2H,3H,4H,6H,7H,11bH-pyrido[2,1-a]isoquinolin-9-yl]oxy}ethoxy)-2-cyclopropylacetonitrile]
CLint scaled at 0.5 μM [1]: 4.13 L/h/kg
half-life at 0.5 μM [1]: 18 min
Predicted Max. Bioavailability (% F) [1]: 23 % F
HLM Predicted Systemic Clearance [1]: 0.93 L/h/kg
Ki (human VMAT2; [2]): 0.0048 µM

COc1cc2c(cc1OCCOC(C)(C)C#N)CCN1C[C@@H](CC(C)(C)C)[C@H](O)C[C@H]21 [Compound 4-44, 2-(2-{[(2R,3R,11bR)-3-(2,2-dimethylpropyl)-2-hydroxy-10-methoxy-1H,2H,3H,4H,6H,7H,11bH-pyrido[2,1-a]isoquinolin-9-yl]oxy}ethoxy)-2-methylpropanenitrile]
CLint scaled at 0.5 μM [1]: 1.61 L/h/kg
half-life at 0.5 μM [1]: 46 min
Predicted Max. Bioavailability (% F) [1]: 43 % F
HLM Predicted Systemic Clearance [1]: 0.6882 L/h/kg
Ki (human VMAT2; [2]): 0.0024 µM

COc1cc2c(cc1OCCC1(C#N)CC1)CCN1C[C@@H](CC(C)(C)C)[C@H](O)C[C@H]21 [Compound 4-45, 1-(2-{[(2R,3R,11bR)-3-(2,2-dimethylpropyl)-2-hydroxy-10-methoxy-1H,2H,3H,4H,6H,7H,11bH-pyrido[2,1-a]isoquinolin-9-yl]oxy}ethyl)cyclopropane-1-carbonitrile]
CLint scaled at 0.5 μM [1]: 0.582 L/h/kg
half-life at 0.5 μM [1]: 129 min
Predicted Max. Bioavailability (% F) [1]: 67 % F
HLM Predicted Systemic Clearance [1]: 0.392 L/h/kg
Ki (human VMAT2; [2]): 0.0073 µM

COc1cc2c(cc1OCC1(CC#N)CC1)CCN1C[C@@H](CC(C)(C)C)[C@H](O)C[C@H]21 [Compound 4-46, 2-[1-({[(2R,3R,11bR)-3-(2,2-dimethylpropyl)-2-hydroxy-10-methoxy-1H,2H,3H,4H,6H,7H,11bH-pyrido[2,1-a]isoquinolin-9-yl]oxy}methyl)cyclo-propyl]acetonitrile]
CLint scaled at 0.5 μM [1]: 2.71 L/h/kg
half-life at 0.5 μM [1]: 28 min
Predicted Max. Bioavailability (% F) [1]: 31 % F
HLM Predicted Systemic Clearance [1]: 0.8316 L/h/kg
Ki (human VMAT2; [2]): 0.025 µM

COc1cc2c(cc1OCC(C)(C)O)CCN1C[C@@H](CC(C)(C)C)[C@H](O)C[C@H]21 [Compound 4-47, (2R,3R,11bR)-3-(2,2-dimethylpropyl)-9-(2-hydroxy-2-methylpropoxy)-10-methoxy-1H,2H,3H,4H,6H,7H,11bH-pyrido[2,1-a]isoquinolin-2-ol]
CLint scaled at 0.5 μM [1]: ≤ 0.178 L/h/kg
half-life at 0.5 μM [1]: ≥ 420 min
Predicted Max. Bioavailability (% F) [1]: ≥87 % F
HLM Predicted Systemic Clearance [1]: ≤0.155 L/h/kg
Ki (human VMAT2; [2]): 0.015 µM

COc1cc2c(cc1OC[C@@H](O)C(F)(F)F)CCN1C[C@@H](CC(C)(C)C)[C@H](O)C[C@H]21 [Compound 4-49, (2R,3R,11bR)-3-(2,2-dimethylpropyl)-10-methoxy-9-[(2R)-3,3,3-trifluoro-2-hydroxypropoxy]-1H,2H,3H,4H,6H,7H,11bH-pyrido[2,1-a]isoquinolin-2-ol]
CLint scaled at 0.5 μM [1]: ≤ 0.178 L/h/kg
half-life at 0.5 μM [1]: ≥ 420 min
Predicted Max. Bioavailability (% F) [1]: ≥87 % F
HLM Predicted Systemic Clearance [1]: ≤0.155 L/h/kg
Ki (human VMAT2; [2]): 0.02 µM

COc1cc2c(cc1OCC(O)C(F)F)CCN1C[C@@H](CC(C)(C)C)[C@H](O)C[C@H]21 (stereo partly drawn) [Compound 4-51, (2R,3R,11bR)-9-(3,3-difluoro-2-hydroxypropoxy)-3-(2,2-dimethylpropyl)-10-methoxy-1H,2H,3H,4H,6H,7H,11bH-pyrido[2,1-a]isoquinolin-2-ol]
CLint scaled at 0.5 μM [1]: ≤ 0.178 L/h/kg
half-life at 0.5 μM [1]: ≥ 420 min
Predicted Max. Bioavailability (% F) [1]: ≥87 % F
HLM Predicted Systemic Clearance [1]: ≤0.155 L/h/kg
Ki (human VMAT2; [2]): 0.0094 µM

[2H]C([2H])([2H])Oc1cc2c(cc1OC)[C@H]1C[C@@H](O)[C@H](CC(C)(C)C)CN1CC2 [Compound 4-52, (2R,3R,11bR)-3-(2,2-dimethylpropyl)-9-(methoxy-d3)-10-methoxy-1H,2H,3H,4H,6H,7H,11bH-pyrido[2,1-a]isoquinolin-2-ol]
CLint scaled at 0.5 μM [1]: ≤ 0.178 L/h/kg
half-life at 0.5 μM [1]: ≥ 420 min
Predicted Max. Bioavailability (% F) [1]: ≥87 % F
HLM Predicted Systemic Clearance [1]: ≤0.155 L/h/kg
Ki (human VMAT2): 0.0025 µM

COc1cc2c(cc1O[C@@H]1CCOC1)CCN1C[C@@H](CC(C)(C)C)[C@H](O)C[C@H]21 [Compound 4-53, (2R,3R1bR)-3-(2,2-dimethylpropyl)-10-methoxy-9-[(3R)-oxolan-3-yloxy]-1H,2H,3H,4H,6H,7H,11bH-pyrido[2,1-a]isoquinolin-2-ol]
CLint scaled at 0.5 μM [1]: 0.514 L/h/kg
half-life at 0.5 μM [1]: 146 min
Predicted Max. Bioavailability (% F) [1]: 70 % F
HLM Predicted Systemic Clearance [1]: 0.36 L/h/kg
Ki (human VMAT2; [2]): 0.012 µM
